# What was measured:
# Assay in all cases: Test E greenhouse herbicide test, pre- and postemergence
# Type in all cases: in vivo
# [1] = tested on: Italian ryegrass (Lolium multiflorum)
# How it was run: (§1)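 For each species, sown seed in silt loam and young plants (2 to 18 cm) in a peat/vermiculite medium were each treated with compound dissolved in surfactant-containing, non-phytotoxic solvent. After 14 to 21 d under greenhouse conditions, effects were visually rated, 100 meaning complete control.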
# [2] = tested on: beggarticks (hairy beggarticks, Bidens pilosa)
# How it was run: as §1
# [3] = tested on: crabgrass, large (large crabgrass, Digitaria sanguinalis); settings: Preemergence
# How it was run: as §1
# [4] = tested on: foxtail, giant (giant foxtail, Setaria faberii); settings: Preemergence
# How it was run: as §1
# [5] = tested on: johnsongrass (Sorghum halepense); settings: Preemergence
# How it was run: as §1
# kochia (Kochia scoparia) = tested on: kochia (Kochia scoparia)
# How it was run: as §1
# [6] = tested on: momingglory (Ipomoea coccinea); settings: Preemergence
# How it was run: as §1
# [7] = tested on: nutsedge, yellow (yellow nutsedge, Cyperus esculentus); settings: Preemergence
# How it was run: as §1
# [8] = tested on: sandbur (southem sandbur, Cenchrus echinatus)
# How it was run: as §1
# [9] = tested on: velvetleaf (Abutilon theophrasti); settings: Preemergence
# How it was run: as §1
# [10] = tested on: waterhemp (common waterhemp, Amaranthus rudis)
# How it was run: as §1
# [11] = 62 g ai/ha, Postemergence, scale 0 to 100 (0 no effect, 100 complete control)
# [12] = 125 g ai/ha, Postemergence, scale 0 to 100 (0 no effect, 100 complete control)
# [13] = 125 g ai/ha, Preemergence, scale 0 to 100 (0 no effect, 100 complete control)
# [14] = Postemergence, 16 g ai/ha, visual, scale 0 no effect to 100 complete control
# [15] = Postemergence, 31 g ai/ha, visual, scale 0 no effect to 100 complete control
# [16] = Preemergence, 16 g ai/ha, scale 0 to 100, 0 no effect, 100 complete control
# [17] = Preemergence, 31 g ai/ha, scale 0 to 100, 0 no effect, 100 complete control
# [18] = 62 g ai/ha, Preemergence, scale 0 to 100 (0 no effect, 100 complete control)
# [19] = 62 g ai/ha, scale 0 to 100 (0 no effect, 100 complete control)
# [20] = 125 g ai/ha, scale 0 to 100 (0 no effect, 100 complete control)
# [21] = 16 g ai/ha, scale 0 to 100, 0 no effect, 100 complete control
# [22] = 31 g ai/ha, scale 0 to 100, 0 no effect, 100 complete control
# [23] = 250 g ai/ha, Postemergence, scale 0 to 100 (0 no effect, 100 complete control)
# [24] = Preemergence, 250 g ai/ha, visual, scale 0 no effect to 100 complete control
# [25] = 250 g ai/ha, visual, scale 0 no effect to 100 complete control
structure (smiles),measurement,setting,value
CCC(=O)Oc1c(C)nn(C)c(=O)c1-c1c(C)sc2ccc(Cl)cc12 [Compound 109],"Plant response rating, Ryegrass, Italian",[1]; [11],90
same,"Plant response rating, Ryegrass, Italian",[1]; [12],85
same,"Plant response rating, Ryegrass, Italian",[1]; [13],98
same,"Plant response rating, Ryegrass, Italian",[1]; [14],50
same,"Plant response rating, Ryegrass, Italian",[1]; [15],75
same,"Plant response rating, Ryegrass, Italian",[1]; [16],60
same,"Plant response rating, Ryegrass, Italian",[1]; [17],75
same,"Plant response rating, Beggarticks",[2]; [11],85
same,"Plant response rating, Beggarticks",[2]; [18],100
same,"Plant response rating, Beggarticks",[2]; [12],100
same,"Plant response rating, Beggarticks",[2]; [13],100
same,"Plant response rating, Beggarticks",[2]; [14],80
same,"Plant response rating, Beggarticks",[2]; [15],90
same,"Plant response rating, Beggarticks",[2]; [16],20
same,"Plant response rating, Beggarticks",[2]; [17],75
same,"Plant response rating, Crabgrass, Large",[3]; [19],40
same,"Plant response rating, Crabgrass, Large",[3]; [20],35
same,"Plant response rating, Crabgrass, Large",[3]; [21],0
same,"Plant response rating, Crabgrass, Large",[3]; [22],0
same,"Plant response rating, Foxtail, Giant",[4]; [19],40
same,"Plant response rating, Foxtail, Giant",[4]; [20],80
same,"Plant response rating, Foxtail, Giant",[4]; [21],0
same,"Plant response rating, Foxtail, Giant",[4]; [22],35
same,"Plant response rating, Johnsongrass",[5]; [20],40
same,"Plant response rating, Johnsongrass",[5]; [21],0
same,"Plant response rating, Johnsongrass",[5]; [22],0
same,"Plant response rating, Kochia",kochia (Kochia scoparia); [11],95
same,"Plant response rating, Kochia",kochia (Kochia scoparia); [12],100
same,"Plant response rating, Kochia",kochia (Kochia scoparia); [13],100
same,"Plant response rating, Kochia",kochia (Kochia scoparia); [14],80
same,"Plant response rating, Kochia",kochia (Kochia scoparia); [15],95
same,"Plant response rating, Kochia",kochia (Kochia scoparia); [16],0
same,"Plant response rating, Kochia",kochia (Kochia scoparia); [17],10
same,"Plant response rating, Morningglory",[6]; [20],65
same,"Plant response rating, Morningglory",[6]; [21],0
same,"Plant response rating, Morningglory",[6]; [22],0
same,"Plant response rating, Nutsedge, Yellow",[7]; [20],40
same,"Plant response rating, Nutsedge, Yellow",[7]; [21],0
same,"Plant response rating, Nutsedge, Yellow",[7]; [22],0
same,"Plant response rating, Sandbur",[8]; [12],70
same,"Plant response rating, Sandbur",[8]; [13],75
same,"Plant response rating, Sandbur",[8]; [14],60
same,"Plant response rating, Sandbur",[8]; [15],40
same,"Plant response rating, Sandbur",[8]; [16],0
same,"Plant response rating, Sandbur",[8]; [17],40
same,"Plant response rating, Velvetleaf",[9]; [20],65
same,"Plant response rating, Velvetleaf",[9]; [21],0
same,"Plant response rating, Velvetleaf",[9]; [22],0
same,"Plant response rating, Waterhemp",[10]; [12],90
same,"Plant response rating, Waterhemp",[10]; [13],98
same,"Plant response rating, Waterhemp",[10]; [14],60
same,"Plant response rating, Waterhemp",[10]; [15],75
same,"Plant response rating, Waterhemp",[10]; [16],0
same,"Plant response rating, Waterhemp",[10]; [17],0
CC(=O)Oc1c(C)nn(C)c(=O)c1-c1c(C)cc(C)c2ccccc12 [Compound 153],"Plant response rating, Ryegrass, Italian",[1]; [11],90
same,"Plant response rating, Ryegrass, Italian",[1]; [12],90
same,"Plant response rating, Ryegrass, Italian",[1]; [13],100
same,"Plant response rating, Ryegrass, Italian",[1]; [23],95
same,"Plant response rating, Ryegrass, Italian",[1]; [15],85
same,"Plant response rating, Ryegrass, Italian",[1]; [17],100
same,"Plant response rating, Ryegrass, Italian",[1]; [24],100
same,"Plant response rating, Beggarticks",[2]; [11],100
same,"Plant response rating, Beggarticks",[2]; [18],100
same,"Plant response rating, Beggarticks",[2]; [12],100
same,"Plant response rating, Beggarticks",[2]; [13],100
same,"Plant response rating, Beggarticks",[2]; [23],100
same,"Plant response rating, Beggarticks",[2]; [15],100
same,"Plant response rating, Beggarticks",[2]; [17],100
same,"Plant response rating, Beggarticks",[2]; [24],100
same,"Plant response rating, Crabgrass, Large",[3]; [19],70
same,"Plant response rating, Crabgrass, Large",[3]; [20],75
same,"Plant response rating, Crabgrass, Large",[3]; [22],70
same,"Plant response rating, Crabgrass, Large",[3]; [25],80
same,"Plant response rating, Foxtail, Giant",[4]; [19],95
same,"Plant response rating, Foxtail, Giant",[4]; [20],95
same,"Plant response rating, Foxtail, Giant",[4]; [22],75
same,"Plant response rating, Foxtail, Giant",[4]; [25],100
same,"Plant response rating, Johnsongrass",[5]; [22],0
same,"Plant response rating, Johnsongrass",[5]; [25],60
same,"Plant response rating, Kochia",kochia (Kochia scoparia); [11],50
same,"Plant response rating, Kochia",kochia (Kochia scoparia); [12],55
same,"Plant response rating, Kochia",kochia (Kochia scoparia); [13],50
same,"Plant response rating, Kochia",kochia (Kochia scoparia); [23],70
same,"Plant response rating, Kochia",kochia (Kochia scoparia); [15],50
same,"Plant response rating, Kochia",kochia (Kochia scoparia); [17],40
same,"Plant response rating, Kochia",kochia (Kochia scoparia); [24],90
same,"Plant response rating, Morningglory",[6]; [20],90
same,"Plant response rating, Morningglory",[6]; [22],85
same,"Plant response rating, Morningglory",[6]; [25],100
same,"Plant response rating, Nutsedge, Yellow",[7]; [20],80
same,"Plant response rating, Nutsedge, Yellow",[7]; [22],50
same,"Plant response rating, Nutsedge, Yellow",[7]; [25],95
same,"Plant response rating, Sandbur",[8]; [12],60
same,"Plant response rating, Sandbur",[8]; [13],85
same,"Plant response rating, Sandbur",[8]; [23],70
same,"Plant response rating, Sandbur",[8]; [15],50
same,"Plant response rating, Sandbur",[8]; [17],80
same,"Plant response rating, Sandbur",[8]; [24],90
same,"Plant response rating, Velvetleaf",[9]; [20],90
same,"Plant response rating, Velvetleaf",[9]; [22],85
same,"Plant response rating, Velvetleaf",[9]; [25],100
same,"Plant response rating, Waterhemp",[10]; [12],50
same,"Plant response rating, Waterhemp",[10]; [13],85
same,"Plant response rating, Waterhemp",[10]; [23],75
same,"Plant response rating, Waterhemp",[10]; [15],50
same,"Plant response rating, Waterhemp",[10]; [17],60
same,"Plant response rating, Waterhemp",[10]; [24],100
